In patent publication US20110251135A1, “INHIBITORS OF PERITONEAL SEEDING OF CANCER CELLS” (University of Utah Research Foundation, priority 2008, published 2011):

Tests used:
[1] = system: TRAF-1 and TRAF-2; assay: Immunoblot of anti-apoptotic proteins in HT-29 cells; type: cell-based, human; details: 20 μM for 8 hours
Experimental: (§1) The data points represent the means of triplicate experiments and the error bars the standard errors of the means. […] The percent of apoptotic cells was then determined by the annexin V assay. […] The results shown are typical of two separate experiments. […] Immunoblots were performed for c-IAP-2, TRAF-1, TRAF-2, and FLIP. All lanes contain equal total protein.
(§2) The cells were washed twice in ice cold PBS and then lysed in 4° C. lysis buffer (50 mM HEPES, 150 mM NaCl, 1.5 mM MgCl2, 1 mM EGTA, 100 mM NaF, 10 mM Na2PO4, 1 mM Na3VO4, 10% glycerol, 1% TRITON™ X-100, and 1 μg/mL each of aprotinin, leupeptin, chymostatin, pepstatin) and clarified at 12,000 rpm at 4° C. for 15 minutes. The lysates were normalized for total protein concentration. Aliquots of the lysates were then mixed 1:1 in sample buffer (125 mM Tris-HCl (pH 6.8), 20% glycerol, 4% sodium dodecyl sulfate, 2% β-mercaptoethanol, 10 μg/mL bromophenol blue) and boiled for 3 minutes. The samples were loaded onto SDS-PAGE gels (7.5 or 10% acrylamide). […]
(§3) For immunodetection, the blocked blots were probed with primary antibody for 2 hours at 4° C. on a rocker. […] Alkaline phosphatase was detected by a colorimetric reaction using a BCIP (5-bromo-4-chloro-3-indolyl phosphate)/NBT (nitroblue tetrazolium) kit (Zymed).

[2] = system: c-IAP-1; assay: as above; type: cell-based, human; details: transiently suspended or adherent HT-29; 20 μM for 8 hours
Experimental: as §1, §2, §3

[3] = system: FLIP; assay: FLIP immunoblot in HT-29 cells; type: cell-based, human
Experimental: as §1
The cells were washed twice in ice cold PBS and then lysed in 4° C. lysis buffer (50 mM HEPES, 150 mM NaCl, 1.5 mM MgCl2, 1 mM EGTA, 100 mM NaF, 10 mM Na2PO4, 1 mM Na3VO4, 10% glycerol, 1% TRITON™ X-100, and 1 μg/mL each of aprotinin, leupeptin, chymostatin, pepstatin) and clarified at 12,000 rpm at 4° C. for 15 minutes. The lysates were normalized for total protein concentration. […]
as §3
Since HCT-116 colon cancer cells have relatively low levels of FLIP compared with other cancer cell lines (FIG. 13A), they were transfected with human c-FLIP. HCT-116 cells that were transfected with human c-FLIP or empty vector were transiently suspended and allowed to readhere in the presence of BAY 11-7085 for 8 hours. […]

[4] = system: pancreatic (Su.86, PL-45) and colon cancer cells (HT-29); assay: Cleaved PARP western blot during readhesion; type: cell-based, human; details: 10-20 μM BAY 11-7085; 8 hours
Experimental: FIG. 10 is a graph showing that BAY 11-7085 induces apoptosis of pancreatic and colon cancer cells during readhesion. Pancreatic (Su.86, PL-45) and colon cancer cells (HT-29) were transiently suspended and allowed to readhere in the presence or absence of vehicle or various concentrations of BAY 11-7085 for 8 hours. The floating and adherent cells were collected and lysed. Western blots for cleaved PARP were performed to determine if the cells were undergoing apoptosis (FIG. 10A). Transiently suspended pancreatic cancer cells ([…] per well) were allowed to readhere in the presence of vehicle or various concentrations of BAY 11-7085 for 24 hours. Nonadherent apoptotic cells were washed away and the remaining adherent cells stained with crystal violet and then dried. The crystal violet stained cells were lysed and the absorbance read in a plate spectrophotometer (FIG. 10B). […] The results are expressed as a percentage of cells surviving compared with vehicle alone.
BxPc-3, PL-45, Su.86.86 and HT-29 cells were transiently suspended and treated in vitro with varying concentrations of BAY 11-7085 or DMSO for four to eight hours. […] The degree of apoptosis was determined by western blotting for cleaved PARP.

[5] = system: BxPc-3 pancreatic cancer cells; assay: Athymic mouse model of peritoneal carcinomatosis (IP cancer cells, bioluminescent imaging, 9 days); type: in vivo; details: BxPc-3 IP; BAY 11-7085 5 mg/kg IP 24 h before, then every 3 days for 9 days
Experimental: (§4) Twenty-four hours later, […] Su.86 or BxPC-3 pancreatic cancer cells, that were stably transfected with a firefly luciferase construct, were delivered IP. […] At the end of treatment, the mice received luciferin IP and sacrificed. The abdominal cavities were exposed and the mice placed immediately in a bioluminescent imager and photographed. The individual intraabdominal peritoneal tumors were counted. The subset of tumor implants limited to the liver surface was determined as well. […] The proportion of mice with peritoneal and/or hepatic tumor implants were compared using a test of proportions (*p<0.05).

[6] = system: Su.86 pancreatic cancer cells; assay: as above; type: in vivo; details: Su.86 IP; BAY 11-7085 5 mg/kg IP 24 h before, then every 3 days for 9 days
Experimental: as §4

[7] = system: HCT-116 cells transfected with human c-FLIP or empty vector; assay: Annexin V-FITC assay, readhesion of HCT-116 cells transfected with human c-FLIP or empty vector; type: cell-based; details: readhesion 8 hours
Experimental: Since HCT-116 colon cancer cells have relatively low levels of FLIP compared with other cancer cell lines (FIG. 13A), they were transfected with human c-FLIP. HCT-116 cells that were transfected with human c-FLIP or empty vector were transiently suspended and allowed to readhere in the presence of BAY 11-7085 for 8 hours. […] Thus, FLIP appears to be an important target of BAY 11-7085 and is able to inhibit BAY 11-7085-mediated apoptosis during colon cancer cell readhesion.

[8] = athymic mice; BAY 11-7085 5 mg/kg IP, 4 doses total
[9] = system: IκB phosphorylation and TNFα-induced NF-κB activation; details: Pierce et al., J Biol Chem 272:21096-103, 1997; cited from earlier work

CC(C)(C)c1ccc(S(=O)(=O)/C=C/C#N)cc1 [BAY 11-7085, (2E)-3-[4-(tertiarybutylphenyl)sulfonyl]-2-propenenitrile]
TRAF-1 and TRAF-2 protein expression [1]: decrease in the protein expression of both TRAF-1 and TRAF-2 proteins
c-IAP-1 protein expression [2]: No decrease in c-IAP-1 protein expression
expression of the 54 kilodalton (long) isoform of FLIP ([3]; adherent HT-29, 20 μM): only a slight diminution
FLIP expression in readhering HT-29 cells ([3]; readhering HT-29, 3 hours): caused the down-regulation of FLIP after only 3 hours
apoptosis (cleaved PARP levels) during cell readhesion [4]: increased apoptosis (cleaved PARP levels)
% with Liver Implants [5]: 29%
% with Peritoneal Implants [5]: 71%
% with Liver Implants [6]: 0%
% with Peritoneal Implants [6]: 33%
apoptosis (Annexin V-FITC assay) ([7]; HCT-116 over-expressing FLIP): much more resistant to BAY 11-7085
apoptosis (Annexin V-FITC assay) ([7]; control (empty vector) HCT-116): induced apoptosis
deaths / overt signs of toxicity [8]: None of the mice died or showed overt signs of toxicity
IκB phosphorylation and TNFα-induced NF-κB activation [9]: inhibit IκB phosphorylation and TNFα-induced NF-κB activation
